Results: patent US8551963B2, “Imidazolothiazole compounds and methods of use thereof” (Ambit Biosciences Corporation, priority 2008, dated 2013)
Like-named read-outs stand apart in the source and are kept apart here.

Key:
[1] = molecular target: CYP2C9 (Homo sapiens (Human), UniProt P11712); test: Cyp enzyme inhibition assay in human liver microsomes, CYP2C9; format: in vitro ADME; settings: CYP2C9, substrate Diclofenac
Experimental: (§1) The ability of the compound I-1 to inhibit human metabolizing enzymes CYP3A4, CYP2C9, […], CYP2C19 and CYP1A2, was assessed using those enzymes found collectively in human liver microsomes. The test compound I-1 was prepared as a solution in DMSO or acetonitrile and plated in duplicate rows of a 96-well plate (Nunc) for a final assay concentration of 40 μM in 0.2% DMSO (or 2% acetonitrile) in the first column and serially diluted two-fold going down the row. A known selective inhibitor of a given CYP enzyme listed in Table 8 was selected as the appropriate positive control. For each CYP enzyme inhibition assay, an appropriate enzyme-substrate mixture was prepared to afford a final assay concentration of 75 mM KPO4/pH 7.4, 6.5 mM MgCl2, 0.25 mg/mL pooled male and female human liver microsome (CellzDirect lot HMMC-PL020) with the amounts of the appropriate substrate for each CYP enzyme assay given in Table 8. The enzyme-substrate mixture was added to columns 1 through 10 and column 11 served as a negative control with enzyme solution lacking substrate. A solution of NADPH (Calbiochem) was then added to all rows except for one where NADPH would be added after the incubation period, in order to detect NADPH-independent non-CYP-mediated metabolism. The plate was briefly vortexed and left to shake in a 37° C. water bath for 20 minutes. […]

[2] = molecular target: CYP2C19 (Homo sapiens (Human), UniProt P33261); test: Cyp enzyme inhibition assay in human liver microsomes, CYP2C19; format: in vitro ADME; settings: CYP2C19, substrate mephenytoin
CYP2C19, sequence (P33261 whole entry): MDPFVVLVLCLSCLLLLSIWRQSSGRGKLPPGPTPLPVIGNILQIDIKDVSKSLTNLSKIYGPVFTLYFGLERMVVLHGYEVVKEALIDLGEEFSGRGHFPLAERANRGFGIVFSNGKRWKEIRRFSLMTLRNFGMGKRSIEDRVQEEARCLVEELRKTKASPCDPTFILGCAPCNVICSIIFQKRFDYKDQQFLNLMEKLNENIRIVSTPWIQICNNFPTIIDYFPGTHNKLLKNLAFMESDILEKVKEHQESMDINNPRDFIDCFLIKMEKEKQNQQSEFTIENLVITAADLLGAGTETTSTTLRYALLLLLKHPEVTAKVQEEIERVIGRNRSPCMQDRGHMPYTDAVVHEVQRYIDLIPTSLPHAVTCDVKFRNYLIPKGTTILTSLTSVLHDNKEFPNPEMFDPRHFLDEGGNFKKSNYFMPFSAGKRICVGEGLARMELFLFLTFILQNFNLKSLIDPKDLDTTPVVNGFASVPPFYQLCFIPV
Experimental: as §1

[3] = tested on: MV4;11 cells; test: MV4;11 cellular proliferation assay (Cell Titer Blue); format: cell-based; settings: Homo sapiens, MV4-11, 72 h, read-out: EC50 (50% inhibition of cellular proliferation)
Experimental: (§2) Cells were cultured overnight in low serum media with 0.5% FBS. The following day, cells were seeded on to a 96-well plate at 40,000 cells per well at a volume of 100 μL per well.
(§3) CTB reagent was thawed in a 37° C. water bath. 40 μL of CTB reagent was added to the plate containing the cells, and the cells were incubated with the reagent at 37° C. in 5% CO2 for 3 hours. The absorbance was measured at 560 nm (excitation)/590 nm (emission) using Spectramax Plus 384 Absorbance Microplate Reader by Molecular Devices.

[4] = tested on: RS4;11 cells; test: RS4;11 cellular proliferation assay (Cell Titer Blue); format: cell-based; settings: Homo sapiens, RS4-11, 48 h, read-out: EC50 (50% inhibition of cellular proliferation)
Experimental: as §2, §3

[5] = tested on: plasma protein; test: Plasma protein binding assay (equilibrium dialysis); format: in vitro ADME; settings: 1 μM, equilibrium dialysis 16-20 hours at 37° C.
Experimental: Reagents: 1× Isotonic PBS (Mediatech, Inc., Herndon, Va.); 96 Well Equilibrium Dialyzer (Harvard Apparatus, Holliston, Mass.) and Animal plasma from species of interest.
1 μM solutions of test compound were prepared in both isotonic PBS and 10% animal plasma in isotonic PBS.
200 μl of each test solution was added to opposite sides of the equilibrium dialysis membrane.
Samples were incubated for 16-20 hours at 37° C.
After incubation, 100 μl sample was removed from the PBS side and diluted with 100 μl of 20% animal plasma in PBS.
100 μl sample was removed from the 10% animal plasma side and diluted with 100 μl of 10% animal plasma.
A calibration curve was prepared in 10% animal plasma to extrapolate unknown concentrations.
Samples were analyzed by LC/MS/MS.
50 μl of samples, calibration standards and quality control standards were extracted with 100 μl of acetonitrile containing 25 ng/ml of internal standard.
Calculations Calculate fraction unbound in 10% plasma Fu(10%)=1−(PC−PF)/PC) Convert 10% plasma value to 100% Fu(100%)=Fu10%/(10−9*Fu10%).

[6] = molecular target: FLT3 (Homo sapiens (Human), UniProt P36888); test: biochemical; format: binding
Experimental: (§4) Competition binding assays used herein were developed, validated and performed as described in Fabian et al., Nature Biotechnology 2005, 23, 329-336. Kinases were produced as fusions to T7 phage (See, Fabian et al. or WO04/015142) or alternatively, the kinases were expressed in HEK-293 cells and subsequently tagged with DNA for PCR detection (See, WO08/005,310). […] The liganded beads were blocked with excess biotin and washed with blocking buffer (SeaBlock (Pierce), 1% BSA, 0.05% Tween 20, 1 mM DTT) to remove unbound ligand and to reduce non-specific binding. […] Test compounds were prepared as 100× stocks in DMSO and rapidly diluted into the aqueous environment. DMSO was added to control assays lacking a test compound. […] The kinase concentration in the eluates was measured by quantitative PCR. Each kinase was tested individually against each compound. Kds were determined using eleven serial threefold dilutions.

[7] = molecular target: FLT3 (D835H) (Homo sapiens (Human), UniProt P36888, D835H); test: biochemical; format: binding
Experimental: as §4

[8] = molecular target: FLT3 (D835Y) (Homo sapiens (Human), UniProt P36888, D835Y); test: biochemical; format: binding
Experimental: as §4

[9] = molecular target: FLT3 (ITD) (Homo sapiens, UniProt P36888, ITD); test: biochemical; format: binding
Experimental: as §4

[10] = molecular target: FLT3 (N841I) (Homo sapiens (Human), UniProt P36888, N841I); test: biochemical; format: binding
Experimental: The liganded beads were blocked with excess biotin and washed with blocking buffer (SeaBlock (Pierce), 1% BSA, 0.05% Tween 20, 1 mM DTT) to remove unbound ligand and to reduce non-specific binding. […] Test compounds were prepared as 100× stocks in DMSO and rapidly diluted into the aqueous environment. DMSO was added to control assays lacking a test compound. […] The kinase concentration in the eluates was measured by quantitative PCR. Each kinase was tested individually against each compound. Kds were determined using eleven serial threefold dilutions.

[11] = molecular target: CYP3A4 (Homo sapiens (Human), UniProt P08684); test: Inhibitory constant KI in human liver microsomes, CYP3A4; format: in vitro ADME; settings: CYP3A4, global non-linear regression
CYP3A4, sequence (P08684 whole entry): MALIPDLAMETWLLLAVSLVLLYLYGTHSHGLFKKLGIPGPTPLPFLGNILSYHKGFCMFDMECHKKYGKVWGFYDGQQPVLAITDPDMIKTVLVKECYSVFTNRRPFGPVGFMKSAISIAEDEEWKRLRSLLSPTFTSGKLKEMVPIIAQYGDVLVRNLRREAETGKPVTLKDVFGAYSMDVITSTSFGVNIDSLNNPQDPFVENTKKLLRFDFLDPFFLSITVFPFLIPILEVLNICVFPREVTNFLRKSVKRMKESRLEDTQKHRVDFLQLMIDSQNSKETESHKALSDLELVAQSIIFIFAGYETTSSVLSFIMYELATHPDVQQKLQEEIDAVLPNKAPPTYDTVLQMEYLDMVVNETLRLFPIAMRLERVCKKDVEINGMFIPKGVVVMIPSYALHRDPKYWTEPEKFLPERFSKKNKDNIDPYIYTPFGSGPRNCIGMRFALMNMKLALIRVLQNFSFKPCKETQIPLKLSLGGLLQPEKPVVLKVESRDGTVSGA
Experimental: A 2 mM stock of Compound I-1 was prepared in acetonitrile (ACN) and serially diluted 2-fold from 2000 μM to 15.63 μM in ACN. […] Individual human liver microsome preparations containing the substrate were then incubated with Compound I-1 (final concentration range 40 μM to 0.31 μM of Compound I-1) for a final incubation concentration of 0.5 mg/mL microsome, 75 mM KPO4, 6.5 mM MgCl2, 1 mM NADPH and 2% acetonitrile (ACN). The samples were incubated in a 37° C. shaking water bath for 20 minutes then quenched with ACN:water (75:25) containing internal standards propranolol at 0.3 ng/mL and cortisone at 0.3 ng/mL. After brief mixing, the plate was centrifuged and the supernate removed for analysis by LC/MS/MS (API 4000 Qtrap) for formation of 6-hydroxy-testosterone (CYP3A4), 4-hydroxy-mephenyloin (CYP2C19) or hydroxy-taxol (CYP2C8). The data was analyzed using global non-linear regression software (GraphPad Prism) and the overall fit of the data (R^2) was used to determine if Compound I-1 was a competitive, non-competitive, or uncompetitive inhibitor. In addition the data was plotted as a Lineweaver-Burke graph (1/V versus 1/S, where V is the […] and S is the substrate concentration) for each inhibitor concentration. Based on the location of convergence (competitive and non-competitive) or non convergence (uncompetitive) of the plots at each inhibitor concentration, the type of inhibition was determined.
Global non-linear regression allows analysis of all the individual inhibitor curves simultaneously and determines the best fit value for shared parameters between the data sets, in this case KI (or KI′). The results of the global nonlinear analysis of Compound I-1 inhibition of the CYP450 isoforms 3A4, 2C19 and 2C8 are shown in Table 12.

[12] = molecular target: hERG channel (Homo sapiens (Human), UniProt Q12809); test: hERG channel inhibition, whole cell recordings in CHO cells; settings: 10 μM
hERG channel, sequence (Q12809 whole entry): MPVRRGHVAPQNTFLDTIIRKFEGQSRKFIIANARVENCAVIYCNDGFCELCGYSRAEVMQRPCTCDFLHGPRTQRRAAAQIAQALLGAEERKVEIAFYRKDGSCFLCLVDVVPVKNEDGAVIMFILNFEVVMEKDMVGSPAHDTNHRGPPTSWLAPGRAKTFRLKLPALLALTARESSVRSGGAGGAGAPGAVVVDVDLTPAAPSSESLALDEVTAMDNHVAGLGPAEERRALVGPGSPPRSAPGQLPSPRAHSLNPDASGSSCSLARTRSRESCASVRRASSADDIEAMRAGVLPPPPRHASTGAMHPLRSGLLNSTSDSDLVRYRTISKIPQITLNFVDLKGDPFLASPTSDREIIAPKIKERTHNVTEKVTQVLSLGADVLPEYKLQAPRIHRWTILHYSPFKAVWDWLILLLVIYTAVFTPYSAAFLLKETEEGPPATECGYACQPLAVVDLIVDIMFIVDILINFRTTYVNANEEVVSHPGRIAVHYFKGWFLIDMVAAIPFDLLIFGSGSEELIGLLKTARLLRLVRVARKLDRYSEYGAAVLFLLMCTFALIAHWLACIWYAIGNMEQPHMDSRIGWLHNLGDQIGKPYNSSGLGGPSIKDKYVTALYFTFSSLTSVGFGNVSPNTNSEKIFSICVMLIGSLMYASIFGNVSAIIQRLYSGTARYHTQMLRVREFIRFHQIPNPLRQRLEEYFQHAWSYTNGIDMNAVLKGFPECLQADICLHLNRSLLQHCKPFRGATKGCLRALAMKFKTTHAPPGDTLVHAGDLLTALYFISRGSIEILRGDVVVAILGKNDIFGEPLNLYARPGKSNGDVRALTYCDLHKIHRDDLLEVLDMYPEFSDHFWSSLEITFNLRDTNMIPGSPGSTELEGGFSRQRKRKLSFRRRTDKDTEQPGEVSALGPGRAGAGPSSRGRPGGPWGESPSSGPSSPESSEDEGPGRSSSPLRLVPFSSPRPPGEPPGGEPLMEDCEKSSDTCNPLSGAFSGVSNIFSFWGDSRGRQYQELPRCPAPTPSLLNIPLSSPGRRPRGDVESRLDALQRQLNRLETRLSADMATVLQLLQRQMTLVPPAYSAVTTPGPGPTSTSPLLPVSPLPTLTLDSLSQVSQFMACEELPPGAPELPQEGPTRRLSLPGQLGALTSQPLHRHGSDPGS
Experimental: Test articles in this study were therefore characterized to determine their ability to inhibit the hERG channel. Ion channel activity was measured using a stably transfected Chinese Hamster Ovary (CHO) cell line expressing the hERG mRNA.
A CHO cell line stably expressing hERG channels was obtained from Aviva Systems Biology LLC and used for the study. Cells were cultured in DMEM/F12 containing 10% FBS, 1% penicillin/streptomycin and 500 μg/ml G418. Before testing, cells were harvested using Accumax (Innovative Cell Technologies).
Whole cell recordings were performed using PX 7000A (Axon Instruments) with AVIVA's SealChip™ technology. Cells were voltage clamped at a holding potential of −80 mV. The hERG current was then activated by a depolarizing step to −50 mV for 300 ms. This first step at −50 mV was used as a baseline for measuring peak amplitude of the tail current. Next, a voltage step to +20 mV was applied for 5 s to activate the channels. Finally a step back to −50 mV for 5 s removed activation and the deactivating tail current was recorded.
All compounds were prepared from either 10 or 30 mM DMSO stock solutions. Solutions were mixed by sonication for 20 min, followed by vigorous vortexing. […]
After achieving whole cell configuration, cells were monitored for 90 s to assess stability and then washed with External Solution for 66 s. […]

CYP2C9, sequence (P11712 whole entry): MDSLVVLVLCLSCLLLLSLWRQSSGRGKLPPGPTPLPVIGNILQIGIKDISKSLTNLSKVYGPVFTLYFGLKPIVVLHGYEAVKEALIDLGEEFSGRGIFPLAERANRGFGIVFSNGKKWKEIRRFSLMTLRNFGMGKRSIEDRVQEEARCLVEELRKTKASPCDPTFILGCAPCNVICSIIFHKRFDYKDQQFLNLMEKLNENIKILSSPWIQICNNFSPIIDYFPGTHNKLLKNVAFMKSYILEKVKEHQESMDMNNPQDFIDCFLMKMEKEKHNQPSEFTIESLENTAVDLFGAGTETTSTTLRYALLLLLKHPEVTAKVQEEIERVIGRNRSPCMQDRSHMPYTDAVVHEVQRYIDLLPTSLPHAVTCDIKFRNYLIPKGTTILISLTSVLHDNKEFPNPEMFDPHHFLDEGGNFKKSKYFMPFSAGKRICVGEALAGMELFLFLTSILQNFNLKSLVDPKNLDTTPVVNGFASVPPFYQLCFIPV

SMILES: CC(C)(CO)c1cc(NC(=O)Nc2ccc(-c3cn4c(n3)sc3cc(OCCN5CCOCC5)ccc34)cc2)no1 [Compound I-1, 1-[5-(2-hydroxy-1,1-dimethyl-ethyl)-isoxazol-3-yl]-3-{4-[7-(2-morpholin-4-yl-ethoxy)-benzo[d]imidazo[2,1-b]thiazol-2-yl]-phenyl}-urea]
- IC50 [1]: > 40000 nM
- IC50 [2]: 15500 nM
- EC50 [3]: 0.3 nM
- EC50 [4]: 2 nM
- Percentage of unbound compound in 10% plasma [5]: 42.5%
- Kd [6]: 0.68 nM
- Kd [7]: 1.9 nM
- Kd [8]: 5.5 nM
- Kd [9]: 8.8 nM
- Kd [10]: 0.77 nM
- Ki ([11]; read-out: Best Fit KI, Competitive): 13100 nM
- Ki ([11]; read-out: Best Fit KI, Non-competitive): 48900 nM
- Ki ([11]; read-out: Best Fit KI′, Uncompetitive): 36000 nM
- % Block Trial 1 [12]: <10%
- % Block Trial 2 [12]: <10%
